Data taken from article PMC10359466, “Identification of a small-molecule inhibitor that selectively blocks DNA-binding by Trypanosoma brucei replication protein A1” (Nature Communications, 2023).
Where “and” joins values, the source holds several entries; their conditions need not be identical. Equal values may be shown once. Read-outs that look alike come from different tables or passages of the source.

Assays:
HsRPA complex = target: T1, HsRPA complex (Homo sapiens, UniProt P27694); assay: EMSA inhibition of ssDNA binding, HsRPA complex
T1 construct: made in house; host or cells: E. coli BL21
T1 sequence (P27694 whole entry): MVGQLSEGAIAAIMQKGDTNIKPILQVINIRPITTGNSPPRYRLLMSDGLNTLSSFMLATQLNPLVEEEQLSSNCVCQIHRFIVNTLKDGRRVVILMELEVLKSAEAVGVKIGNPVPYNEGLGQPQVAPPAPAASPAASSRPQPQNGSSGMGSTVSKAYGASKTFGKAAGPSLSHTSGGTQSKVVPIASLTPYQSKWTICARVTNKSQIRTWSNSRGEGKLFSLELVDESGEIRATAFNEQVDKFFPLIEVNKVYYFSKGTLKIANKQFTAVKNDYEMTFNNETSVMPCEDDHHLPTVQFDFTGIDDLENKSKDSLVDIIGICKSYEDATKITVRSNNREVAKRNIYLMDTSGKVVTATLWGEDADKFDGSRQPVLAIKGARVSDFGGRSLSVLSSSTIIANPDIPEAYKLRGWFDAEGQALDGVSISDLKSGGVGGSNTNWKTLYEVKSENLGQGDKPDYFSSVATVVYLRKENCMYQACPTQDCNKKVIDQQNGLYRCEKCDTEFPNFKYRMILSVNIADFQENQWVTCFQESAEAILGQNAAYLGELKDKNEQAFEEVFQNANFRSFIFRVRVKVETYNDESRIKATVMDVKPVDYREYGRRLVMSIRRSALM
T1 sequence (P15927 whole entry partner): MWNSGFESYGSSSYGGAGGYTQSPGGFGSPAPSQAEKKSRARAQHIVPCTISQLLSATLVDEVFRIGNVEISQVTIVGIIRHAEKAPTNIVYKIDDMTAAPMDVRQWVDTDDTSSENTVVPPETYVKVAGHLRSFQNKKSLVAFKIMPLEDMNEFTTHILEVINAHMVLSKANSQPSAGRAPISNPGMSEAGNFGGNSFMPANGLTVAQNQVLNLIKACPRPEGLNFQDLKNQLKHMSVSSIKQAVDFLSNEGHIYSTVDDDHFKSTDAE
T1 sequence (P35244 whole entry partner): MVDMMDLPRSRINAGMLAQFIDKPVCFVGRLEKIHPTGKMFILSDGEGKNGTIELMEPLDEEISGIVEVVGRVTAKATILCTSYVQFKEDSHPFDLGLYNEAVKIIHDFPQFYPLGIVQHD

T. brucei cells [1] = assay: Cell-cycle analysis by PI staining and flow cytometry; type: cell-based, Trypanosoma brucei; conditions: 10 µM
Protocol: About 10 million cells were collected, fixed with ice-cold 70% ethanol, and incubated with 50 μg/ml PI (Sigma-Aldrich) and 200 μg/ml RNase A (Sigma-Aldrich) in 1x PBS (Corning) at 37 °C for 30 min in the dark. Samples were analyzed by flow cytometry ([…], BD Biosciences) and FlowJo.

T. brucei cells [2] = assay: Microscopic analysis of treated cells (DAPI); type: cell-based, Trypanosoma brucei; conditions: 10 µM
Protocol: For microscopic analysis, untreated or JC-229 treated cells were seeded, and fixed with 1% paraformaldehyde for 10 min at room temperature. Cells were then washed with 1x PBS and stained with DAPI (0.5 µg/ml) (Sigma). Images were captured using fluorescence microscopy (EVOS M5000, Thermo Fisher Scientific) at 40x magnification and edited with Adobe Photoshop.

LmexRPA1 DBD-AB = assay: EMSA inhibition of ssDNA binding, LmexRPA1 DBD-AB; design: species or system L. mexicana
Protocol: Increasing concentrations of recombinant protein (from 0.05 to 100 nM) were incubated with 2 nM of 5´IRDye800-labeled oligo in binding buffer (20 mM Tris, pH 7.5, 10 mM NaCl, 10 mM MgCl2, 2 mM dithiothreitol (DTT), 10% glycerol, and 0.1 mg/ml BSA) for 15 min at room temperature. About 4 μl of 6x Orange dye (Sigma) was added to the 20 μl reaction, and from that, 8 μl was separated on a non-denaturing polyacrylamide gel in 1x Tris-Borate-EDTA (TBE, Invitrogen) buffer; 4% gel for RPA complex and 8% for DBD-AB, DBD-A, or DBD-B proteins. Gels were pre-run for 1 h at a constant 100 V. Protein–ssDNA complex and unbound ssDNA were separated by running the gel at a constant 80 V at 4 °C in the dark and then visualized using LI-COR Odyssey imaging system and quantified with ImageJ software.
Samples were separated on a non-denaturing polyacrylamide gel and analyzed as described above in ssDNA-binding assay.

[3] = tested on: T. brucei TbRPA1 sKO cells; assay: AlamarBlue cytotoxicity on TbRPA1 single knock-out (sKO) T. brucei cells
Protocol: To determine the viability of TbRPA1-depleted cells, we carried out the AlamarBlue assay (Thermo Fisher, catalog number A50101), an established colorimetric technique that detects metabolically active cells by measuring resorufin converted from resazurin by reducing the environment of live cells[70]. Cells from each time point were incubated with AlamarBlue dye for 4–6 h, and the percentage of live cells was determined[70]. Synergy H1 microplate reader (BioTek) was used with 560/590 nm (excitation/emission) filter settings and relative fluorescence unit (RFU) values were obtained. The percentage of viable cells were calculated from the RFU values.

HEK293 = assay: AlamarBlue cell viability of HEK293 cells; type: cell-based, human; conditions: for EC50: HEK293, 72 h
Protocol: To determine the inhibitory effect of JC-229 on human cells, HeLa and HEK293 cells were suspended in 180 μl D-MEM with 10% FBS and plated at a density of 2 × 10^4 cells/ml in triplicate. […] Percent viability was plotted using GraphPad Prism software. […] We estimated the EC50 values using the concentration of JC-229 that causes a 50% reduction of cell viability (inhibitor vs. normalized response, variable slope).

T. brucei cells [4] = assay: AlamarBlue cell viability / growth inhibition of T. brucei
Protocol: Synergy H1 microplate reader (BioTek) was used with 560/590 nm (excitation/emission) filter settings and relative fluorescence unit (RFU) values were obtained. The percentage of viable cells were calculated from the RFU values.
Trypanosome cells were seeded at 1 × 10^3 cells/ml density in 180 µl in a 96-well culture plate in triplicate. […] DMSO was used as a vehicle control at 0.0075%.

TbRPA1 DBD-AB = TbRPA1 DBD-AB (Trypanosoma brucei brucei, UniProt Q384B5); assay: EMSA inhibition of ssDNA binding, TbRPA1 DBD-AB; conditions: 0.625-80 µM, 5´IRDye800-dT32
Sequence of TbRPA1 DBD-AB (Q384B5 entry or part of it): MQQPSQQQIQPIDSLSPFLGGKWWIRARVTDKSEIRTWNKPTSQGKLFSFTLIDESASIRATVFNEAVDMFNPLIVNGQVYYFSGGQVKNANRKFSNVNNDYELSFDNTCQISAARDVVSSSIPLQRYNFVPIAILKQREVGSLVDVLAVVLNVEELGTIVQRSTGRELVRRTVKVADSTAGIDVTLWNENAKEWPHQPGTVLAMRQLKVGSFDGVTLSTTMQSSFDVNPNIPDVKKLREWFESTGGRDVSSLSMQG

Cc1ccc(C(=O)Nc2ccc(Cl)c(Cl)c2)cc1S(=O)(=O)Nc1ccc(Cl)c(Cl)c1 [JC-229, N-(3,4-dichlorophenyl)−3-(N-(3,4-dichlorophenyl)sulfamoyl)−4-methylbenzamide]
Effect on binding of HsRPA complex to ssDNA (EMSA) (HsRPA complex): no effect | Sub-G1 population (T. brucei cells [1]; 32 h): ~45% | Cells that lost the bulk of their DNA (T. brucei cells [1]; 48 h): ~97% | Microscopic analysis of treated cells (T. brucei cells [2]): leads to cell death | Inhibition of LmexRPA1 DBD-AB ssDNA binding (EMSA) (LmexRPA1 DBD-AB): did not inhibit | EC50 ([3]; Trypanosoma brucei, 72 h, read-out: EC50, single KO (∆/WT), 72 h, [Inhibitor] vs. norm response, variable slope): 4.93 µM | EC50 ([3]; Trypanosoma brucei, read-out: EC50, single KO (∆/WT), Suppl. Table 5-B, Sigmoidal, 4-PL): 4.61 µM | EC50 ([3]; read-out: EC50, single KO (∆/WT), 72 h, [Inhibitor] vs. norm response, variable slope): 5 µM | Inhibition of HEK293 at EC50 to T. brucei (HEK293; 6.5 µM): barely inhibited | EC50 (HEK293; Homo sapiens, 0.5-50 μM, 72 h, AlamarBlue, inhibitor vs. normalized response, variable slope (Fig. 3f)): 18 µM | EC50 (HEK293; Homo sapiens, 72 h, Sigmoidal, 4-PL (Suppl. Table 1-B)): 10.3 µM | inhibition at 50 µM (HEK293; Homo sapiens, HEK293, 50 µM, 72 h, read-out: Inhibition of HEK293 at maximum concentration): < 100% | Effect on parasite proliferation (T. brucei cells [4]; 50 µM, 3 days, AlamarBlue): abolished parasite proliferation | EC50 (T. brucei cells [4]; Trypanosoma brucei, 72 h, read-out: EC50 (T. brucei growth inhibition), WT T. brucei, 72 h, AlamarBlue, standard 4-PL curve): 6.6 µM | EC50 (T. brucei cells [4]; Trypanosoma brucei, 72 h, read-out: EC50 (T. brucei), 0.5-50 μM, 72 h, AlamarBlue, inhibitor vs. normalized response, variable slope (Fig. 3f)): 6.54 µM | EC50 (T. brucei cells [4]; Trypanosoma brucei, read-out: EC50, WT (WT/WT), Fig. 8d WT strain, 72 h, [Inhibitor] vs. norm response, variable slope): 5.68 µM | EC50 (T. brucei cells [4]; Trypanosoma brucei, read-out: EC50, WT (WT/WT), Suppl. Table 5-B, Sigmoidal, 4-PL): 5.65 µM | EC50 (T. brucei cells [4]; read-out: EC50 (T. brucei growth inhibition), WT T. brucei, 72 h, AlamarBlue, standard 4-PL curve): 6.58 µM and 6 µM | EC50 (T. brucei cells [4]; read-out: EC50 (T. brucei), 0.5-50 μM, 72 h, AlamarBlue, inhibitor vs. normalized response, variable slope (Fig. 3f)): 6.5 µM | EC50 (T. brucei cells [4]; read-out: EC50, WT (WT/WT), Fig. 8d WT strain, 72 h, [Inhibitor] vs. norm response, variable slope): 5.7 µM | Inhibition of ssDNA binding of TbDBD-AB (EMSA) (TbRPA1 DBD-AB): inhibited by JC-229 in a dose-dependent manner
